From ChEMBL document CHEMBL5257109, “Development of actein derivatives as potent anti-triple negative breast cancer agents” (Bioorg Med Chem Lett, 2023)
Active and inactive are the calls of the source. The rule behind the calls is not given here.

Tests used:
HCC1806 [1] = experiment: Antiproliferative activity against human HCC1806 cells assessed as inhibition of cell growth incubated for 36 hrs by SRB assay; assay type: functional, cell-based; conditions: for IC50: HCC1806, 36 h
MDA-MB-231 [2] = experiment: Antiproliferative activity against human MDA-MB-231 cells assessed as inhibition of cell growth incubated for 36 hrs by SRB assay; assay type: functional, cell-based; conditions: for IC50: MDA-MB-231, 36 h
HCC1806 [3] = experiment: Antiproliferative activity against human HCC1806 cells assessed as inhibition of cell growth at 20 uM incubated for 36 hrs by SRB assay relative to control; assay type: functional
MDA-MB-231 [4] = experiment: Antiproliferative activity against human MDA-MB-231 cells assessed as inhibition of cell growth at 20 uM incubated for 36 hrs by SRB assay relative to control; assay type: functional

SMILES | IC50 (HCC1806 [1]) [µM] | IC50 (MDA-MB-231 [2]) [µM] | Activity (HCC1806 [1]) | Activity (MDA-MB-231 [2]) | inhibition at 20 µM (HCC1806 [3]) [%] | inhibition at 20 µM (MDA-MB-231 [4]) [%]
CC(=O)O[C@@H]1[C@@H](OC(C)=O)[C@H](O[C@H]2CC[C@]34C[C@]35CC(=O)[C@]3(C)[C@H]6[C@H](C)C[C@]7(OC(=O)[C@@]8(C)O[C@@H]78)O[C@H]6C[C@@]3(C)[C@@H]5CC[C@H]4C2(C)C)OC[C@H]1OC(C)=O | – | – | inactive | inactive | – | –
CC(=O)O[C@@H]1[C@@H](OC(C)=O)[C@H](O[C@H]2CC[C@]34C[C@]35CC(=O)[C@]3(C)[C@H]6[C@H](C)C[C@]7(OC(OC(=O)c8ccccc8F)[C@@]8(C)O[C@@H]78)O[C@H]6C[C@@]3(C)[C@@H]5CC[C@H]4C2(C)C)OC[C@H]1OC(C)=O (some centres undefined) | – | – | inactive | inactive | – | –
CC(=O)O[C@@H]1[C@@H](OC(C)=O)[C@H](O[C@H]2CC[C@]34C[C@]35C[C@H](F)[C@]3(C)[C@H]6[C@H](C)C[C@]7(OC(=O)[C@@]8(C)O[C@@H]78)O[C@H]6C[C@@]3(C)[C@@H]5CC[C@H]4C2(C)C)OC[C@H]1OC(C)=O | > 20 | > 20 | – | – | – | –
CO[C@H]1O[C@]2(C[C@@H](C)[C@H]3[C@H](C[C@@]4(C)[C@@H]5CC[C@H]6C(C)(C)[C@@H](O[C@@H]7OC[C@@H](OC(C)=O)[C@H](OC(C)=O)[C@H]7OC(C)=O)CC[C@@]67C[C@@]57C[C@@H](OC(C)=O)[C@]34C)O2)[C@@H]2O[C@]12C | > 20 | > 20 | – | – | – | –
C[C@@H]1C[C@]2(OC(O)[C@@]3(C)O[C@@H]23)O[C@H]2C[C@@]3(C)[C@@H]4CC[C@H]5C(C)(C)[C@@H](O[C@@H]6OC[C@@H](O)[C@H](O)[C@H]6O)CC[C@@]56C[C@@]46CC(=O)[C@]3(C)[C@@H]12 (some centres undefined) | > 20 | > 20 | – | – | – | –
CO[C@@H]1O[C@]2(C[C@@H](C)[C@H]3[C@H](C[C@@]4(C)[C@@H]5CC[C@H]6C(C)(C)[C@@H](O[C@@H]7OC[C@@H](OC(C)=O)[C@H](OC(C)=O)[C@H]7OC(C)=O)CC[C@@]67C[C@@]57C[C@@H](OC(C)=O)[C@]34C)O2)[C@@H]2O[C@]12C | > 20 | > 20 | – | – | – | –
CC(=O)O[C@@H]1[C@@H](OC(C)=O)[C@H](O[C@H]2CC[C@]34C[C@]35C[C@@H](OC(C)=O)[C@]3(C)[C@H]6[C@H](C)C[C@]7(O[C@H](OC(=O)c8ccc([N+](=O)[O-])cc8)[C@@]8(C)O[C@@H]78)O[C@H]6C[C@@]3(C)[C@@H]5CC[C@H]4C2(C)C)OC[C@H]1OC(C)=O | > 20 | > 20 | – | – | – | –
CC(=O)O[C@@H]1[C@@H](OC(C)=O)[C@H](O[C@H]2CC[C@]34C[C@]35C[C@@H](OC(C)=O)[C@]3(C)[C@H]6[C@H](C)C[C@]7(OC(=O)[C@@]8(C)O[C@@H]78)O[C@H]6C[C@@]3(C)[C@@H]5CC[C@H]4C2(C)C)OC[C@H]1OC(C)=O | > 20 | > 20 | – | – | – | –
CC(=O)OC1O[C@]2(C[C@@H](C)[C@H]3[C@H](C[C@@]4(C)[C@@H]5CC[C@H]6C(C)(C)[C@@H](O[C@@H]7OC[C@@H](OC(C)=O)[C@H](OC(C)=O)[C@H]7OC(C)=O)CC[C@@]67C[C@@]57CC(=O)[C@]34C)O2)[C@@H]2O[C@]12C (some centres undefined) | – | – | inactive | inactive | – | –
CC(=O)O[C@@H]1O[C@]2(C[C@@H](C)[C@H]3[C@H](C[C@@]4(C)[C@@H]5CC[C@H]6C(C)(C)[C@@H](O[C@@H]7OC[C@@H](O)[C@H](O)[C@H]7O)CC[C@@]67C[C@@]57C[C@@H](OC(C)=O)[C@]34C)O2)[C@@H]2O[C@]12C | > 20 | > 20 | – | – | – | –
CC(=O)O[C@@H]1C[C@@]23C[C@@]24CC[C@H](O[C@@H]2OC[C@@H](O)[C@H](O)[C@H]2O)C(C)(C)[C@@H]4CC[C@H]3[C@]2(C)C[C@@H]3O[C@]4(C[C@@H](C)[C@@H]3[C@@]12C)OC(=O)[C@@]1(C)O[C@@H]41 | > 20 | > 20 | – | – | – | –
CC(=O)O[C@@H]1[C@@H](OC(C)=O)[C@H](O[C@H]2CC[C@]34C[C@]35C[C@@H](OC(C)=O)[C@]3(C)[C@H]6[C@H](C)C[C@]7(O[C@H](OC(=O)/C=C/c8ccc(OC(F)(F)F)cc8)[C@@]8(C)O[C@@H]78)O[C@H]6C[C@@]3(C)[C@@H]5CC[C@H]4C2(C)C)OC[C@H]1OC(C)=O | > 20 | > 20 | – | – | – | –
CC(=O)O[C@@H]1[C@@H](OC(C)=O)[C@H](O[C@H]2CC[C@]34C[C@]35CC(=O)[C@]3(C)[C@H]6[C@H](C)C[C@]7(OC(OC(=O)c8ccccc8)[C@@]8(C)O[C@@H]78)O[C@H]6C[C@@]3(C)[C@@H]5CC[C@H]4C2(C)C)OC[C@H]1OC(C)=O (some centres undefined) | – | – | inactive | inactive | – | –

Second part, led by results:

IC50 (HCC1806 [1]) [µM] | IC50 (MDA-MB-231 [2]) [µM] | SMILES | Activity (HCC1806 [1]) | Activity (MDA-MB-231 [2]) | inhibition at 20 µM (HCC1806 [3]) [%] | inhibition at 20 µM (MDA-MB-231 [4]) [%]
> 20 | > 20 | CC(=O)O[C@@H]1[C@@H](OC(C)=O)[C@H](O[C@H]2CC[C@]34C[C@]35C[C@@H](OC(C)=O)[C@]3(C)[C@H]6[C@H](C)C[C@]7(O[C@H](OC(=O)c8ccccc8F)[C@@]8(C)O[C@@H]78)O[C@H]6C[C@@]3(C)[C@@H]5CC[C@H]4C2(C)C)OC[C@H]1OC(C)=O | – | – | – | –
> 20 | > 20 | CC(=O)O[C@H]1O[C@]2(C[C@@H](C)[C@H]3[C@H](C[C@@]4(C)[C@@H]5CC[C@H]6C(C)(C)[C@@H](O[C@@H]7OC[C@@H](O)[C@H](O)[C@H]7O)CC[C@@]67C[C@@]57C[C@@H](OC(C)=O)[C@]34C)O2)[C@@H]2O[C@]12C | – | – | – | –
13.6 | > 20 | CC(=O)O[C@@H]1[C@@H](OC(C)=O)[C@H](O[C@H]2CC[C@]34C[C@]35C=C[C@]3(C)[C@H]6[C@H](C)C[C@]7(OC(=O)[C@@]8(C)O[C@@H]78)O[C@H]6C[C@@]3(C)[C@@H]5CC[C@H]4C2(C)C)OC[C@H]1OC(C)=O | – | – | > 50 | > 50
> 20 | > 20 | CC(=O)O[C@@H]1[C@@H](OC(C)=O)[C@H](O[C@H]2CC[C@]34C[C@]35C[C@@H](OC(C)=O)[C@]3(C)[C@H]6[C@H](C)C[C@]7(O[C@H](OC(=O)c8ccccc8)[C@@]8(C)O[C@@H]78)O[C@H]6C[C@@]3(C)[C@@H]5CC[C@H]4C2(C)C)OC[C@H]1OC(C)=O | – | – | – | –
> 20 | > 20 | CC(=O)O[C@@H]1C[C@@]23C[C@@]24CC[C@H](O[C@@H]2OC[C@@H](O)[C@H](O)[C@H]2O)C(C)(C)[C@@H]4CC[C@H]3[C@]2(C)C[C@@H]3O[C@]4(C[C@@H](C)[C@@H]3[C@@]12C)O[C@@H](OC(=O)CCC(=O)O)[C@@]1(C)O[C@@H]41 | – | – | – | –
8.8 | 13 | CC(=O)O[C@@H]1[C@@H](OC(C)=O)[C@H](O[C@H]2CC[C@]34C[C@]35CC(=O)[C@]3(C)[C@H]6[C@H](C)C[C@]7(OC(O)[C@@]8(C)O[C@@H]78)O[C@H]6C[C@@]3(C)[C@@H]5CC[C@H]4C2(C)C)OC[C@H]1OC(C)=O (some centres undefined) | – | – | > 50 | > 50
> 20 | > 20 | C[C@@H]1C[C@]2(OC(=O)[C@@]3(C)O[C@@H]23)O[C@H]2C[C@@]3(C)[C@@H]4CC[C@H]5C(C)(C)[C@@H](O[C@@H]6OC[C@@H](O)[C@H](O)[C@H]6O)CC[C@@]56C[C@@]46C=C[C@]3(C)[C@@H]12 | – | – | – | –
> 20 | > 20 | C[C@@H]1C[C@]2(OC(=O)[C@@]3(C)O[C@@H]23)O[C@H]2C[C@@]3(C)[C@@H]4CC[C@H]5C(C)(C)[C@@H](O[C@@H]6OC[C@@H](O)[C@H](O)[C@H]6O)CC[C@@]56C[C@@]46C[C@H](F)[C@]3(C)[C@@H]12 | – | – | – | –
8.21 | > 20 | CC(=O)OC1O[C@]2(C[C@@H](C)[C@H]3[C@H](C[C@@]4(C)[C@@H]5CC[C@H]6C(C)(C)[C@@H](O[C@@H]7OC[C@@H](OC(C)=O)[C@H](OC(C)=O)[C@H]7OC(C)=O)CC[C@@]67C[C@@]57C[C@@H](OC(C)=O)[C@]34C)O2)[C@@H]2O[C@]12C (some centres undefined) | – | – | > 50 | > 50
> 20 | > 20 | C[C@@H]1C[C@]2(OC(O)[C@@]3(C)O[C@@H]23)O[C@H]2C[C@@]3(C)[C@@H]4CC[C@H]5C(C)(C)[C@@H](O[C@@H]6OC[C@@H](O)[C@H](O)[C@H]6O)CC[C@@]56C[C@@]46C[C@@H](O)[C@]3(C)[C@@H]12 (some centres undefined) | – | – | – | –
> 20 | > 20 | COc1ccc(C(=O)O[C@H]2O[C@]3(C[C@@H](C)[C@H]4[C@H](C[C@@]5(C)[C@@H]6CC[C@H]7C(C)(C)[C@@H](O[C@@H]8OC[C@@H](OC(C)=O)[C@H](OC(C)=O)[C@H]8OC(C)=O)CC[C@@]78C[C@@]68C[C@@H](OC(C)=O)[C@]45C)O3)[C@@H]3O[C@]23C)cc1 | – | – | – | –
> 20 | > 20 | COC1O[C@]2(C[C@@H](C)[C@H]3[C@H](C[C@@]4(C)[C@@H]5CC[C@H]6C(C)(C)[C@@H](O[C@@H]7OC[C@@H](O)[C@H](O)[C@H]7O)CC[C@@]67C[C@@]57C[C@@H](OC(C)=O)[C@]34C)O2)[C@@H]2O[C@]12C (some centres undefined) | – | – | – | –
10.7 | 12.1 | CC(=O)O[C@@H]1[C@@H](OC(C)=O)[C@H](O[C@H]2CC[C@]34C[C@]35CC(=O)[C@]3(C)[C@H]6[C@H](C)C[C@]7(O[C@@H](OC(=O)CCC(=O)O)[C@@]8(C)O[C@@H]78)O[C@H]6C[C@@]3(C)[C@@H]5CC[C@H]4C2(C)C)OC[C@H]1OC(C)=O | – | – | > 50 | > 50
3.42 | > 20 | CC(=O)O[C@@H]1[C@@H](OC(C)=O)[C@H](O[C@H]2CC[C@]34C[C@]35C[C@@H](OC(C)=O)[C@]3(C)[C@H]6[C@H](C)C[C@]7(OC(O)[C@@]8(C)O[C@@H]78)O[C@H]6C[C@@]3(C)[C@@H]5CC[C@H]4C2(C)C)OC[C@H]1OC(C)=O (some centres undefined) | – | – | > 50 | > 50
